Converted amounts (≈) assume the structure as drawn. The source made the active and inactive calls. The calls are words filed in the database; no cut-off is given here. Non-standard residues stand in square brackets, D forms with d. Residues, ends and D or L forms follow the SMILES beside them. ξ: configuration not given here. Pro(3ξ,4ξ-(CH2)4) = O=C(O)[C@H]1NCC2CCCCC21; Oic = O=C(O)[C@@H]1C[C@@H]2CCCC[C@@H]2N1; Tic = O=C(O)[C@@H]1Cc2ccccc2CN1; GABA = NCCCC(=O)O
Legend:
Bacillus subtilis = test: Antibacterial activity against Bacillus subtilis ATCC 43223; format: functional
Salmonella typhimurium = test: Antibacterial activity against Salmonella Typhimurium ATCC 13311; format: functional, Salmonella enterica subsp. enterica serovar Typhimurium; settings: Salmonella enterica
[1] = Toxicity to mouse RBC assessed as hemolytic activity at 25 uM; format: cell-based, Erythrocyte; settings: red blood cells, read-out: Activity
Mycobacterium = test: Antibacterial activity against Mycobacterium ranae ATCC 110; format: functional
Staphylococcus aureus = test: Antibacterial activity against methicillin/gentamicin/tetracycline resistant Staphylococcus aureus ATCC 33592; format: functional
[2] = Toxicity to mouse RBC assessed as hemolytic activity at 100 uM; format: cell-based, Erythrocyte; settings: red blood cells, read-out: Activity

SMILES	MIC (Bacillus subtilis) [µM]	MIC (Salmonella typhimurium) [µM]	hemolysis at 25 µM [1] [%]	MIC (Mycobacterium) [µM]	Activity (Staphylococcus aureus)	hemolysis at 100 µM [2] [%]	MIC (Staphylococcus aureus) [µM]
CC(=O)NCC(=O)N[C@@H](Cc1ccccc1)C(=O)N1Cc2ccccc2C[C@H]1C(=O)NCC(=O)N[C@@H](CCCCN)C(=O)N1Cc2ccccc2C[C@H]1C(=O)NCC(=O)N[C@@H](Cc1ccccc1)C(=O)N1Cc2ccccc2C[C@H]1C(=O)NCC(=O)N[C@H](CCCCN)C(=O)N1Cc2ccccc2C[C@H]1C(=O)N[C@@H](CCCCN)C(=O)N[C@@H](CCCCN)C(=O)N[C@@H](CCCCN)C(=O)N[C@@H](CCCCN)C(N)=O	10 (≈ 19.9 µg/mL)	100 (≈ 199 µg/mL)	4.9	30 (≈ 59.6 µg/mL)	inactive	6	–
CC(=O)N[C@@H](Cc1ccccc1)C(=O)N1Cc2ccccc2C[C@H]1C(=O)N1CC2CCCCC2[C@H]1C(=O)N[C@@H](CCCCN)C(=O)N1Cc2ccccc2C[C@H]1C(=O)N1CC2CCCCC2[C@H]1C(=O)N[C@@H](Cc1ccccc1)C(=O)N1Cc2ccccc2C[C@H]1C(=O)N1CC2CCCCC2[C@H]1C(=O)N[C@@H](CCCCN)C(=O)N1Cc2ccccc2C[C@H]1C(=O)N[C@@H](CCCCN)C(=O)N[C@@H](CCCCN)C(=O)N[C@@H](CCCCN)C(=O)N[C@@H](CCCCN)C(=O)N[C@@H](CCCCN)C(=O)N[C@@H](CCCCN)C(N)=O (some centres not stated) (Ac-F[Tic][Pro(3ξ,4ξ-(CH2)4)]K[Tic][Pro(3ξ,4ξ-(CH2)4)]F[Tic][Pro(3ξ,4ξ-(CH2)4)]K[Tic]KKKKKK-NH2)	1 (≈ 2.47 µg/mL)	10 (≈ 24.7 µg/mL)	33.5	3 (≈ 7.41 µg/mL)	–	41.3	3 (≈ 7.41 µg/mL)
CC(=O)NCC(=O)N[C@@H](Cc1ccccc1)C(=O)N1Cc2ccccc2C[C@H]1C(=O)NCC(=O)NCC(=O)N[C@@H](CCCCN)C(=O)N1Cc2ccccc2C[C@H]1C(=O)NCC(=O)NCC(=O)N[C@@H](Cc1ccccc1)C(=O)N1Cc2ccccc2C[C@H]1C(=O)NCC(=O)NCC(=O)N[C@@H](CCCCN)C(=O)N1Cc2ccccc2C[C@H]1C(=O)N[C@@H](CCCCN)C(=O)N[C@@H](CCCCN)C(=O)N[C@@H](CCCCN)C(=O)N[C@@H](CCCCN)C(N)=O (Ac-GF[Tic]GGK[Tic]GGF[Tic]GGK[Tic]KKKK-NH2)	10 (≈ 21.6 µg/mL)	100 (≈ 216 µg/mL)	3.8	30 (≈ 64.8 µg/mL)	inactive	5.7	–
CC(=O)NCCCC(=O)N[C@@H](Cc1ccccc1)C(=O)N1Cc2ccccc2C[C@H]1C(=O)N1[C@H](C(=O)NCCCC(=O)N[C@@H](CCCCN)C(=O)N2Cc3ccccc3C[C@H]2C(=O)N2[C@H](C(=O)NCCCC(=O)N[C@@H](Cc3ccccc3)C(=O)N3Cc4ccccc4C[C@H]3C(=O)N3[C@H](C(=O)NCCCC(=O)N[C@@H](CCCCN)C(=O)N4Cc5ccccc5C[C@H]4C(=O)N[C@@H](CCCCN)C(=O)N[C@@H](CCCCN)C(=O)N[C@@H](CCCCN)C(=O)N[C@@H](CCCCN)C(=O)N[C@@H](CCCCN)C(N)=O)C[C@@H]4CCCC[C@@H]43)C[C@@H]3CCCC[C@@H]32)C[C@@H]2CCCC[C@@H]21 (Ac-[GABA]F[Tic][Oic][GABA]K[Tic][Oic][GABA]F[Tic][Oic][GABA]K[Tic]KKKKK-NH2)	–	–	10.5	–	–	29.7	–
NCCCC[C@H](NC(=O)[C@H](CCCCN)NC(=O)[C@H](CCCCN)NC(=O)[C@H](CCCCN)NC(=O)[C@@H]1Cc2ccccc2CN1C(=O)[C@H](CCCCN)NC(=O)CNC(=O)[C@@H]1C[C@@H]2CCCC[C@@H]2N1C(=O)[C@@H]1Cc2ccccc2CN1C(=O)[C@H](Cc1ccccc1)NC(=O)CNC(=O)[C@@H]1C[C@@H]2CCCC[C@@H]2N1C(=O)[C@@H]1Cc2ccccc2CN1C(=O)[C@H](CCCCN)NC(=O)CNC(=O)[C@@H]1C[C@@H]2CCCC[C@@H]2N1C(=O)[C@@H]1Cc2ccccc2CN1C(=O)[C@H](Cc1ccccc1)NC(=O)CN)C(N)=O (H-GF[Tic][Oic]GK[Tic][Oic]GF[Tic][Oic]GK[Tic]KKKK-NH2)	–	–	14.3	–	–	33.4	–

Source: ChEMBL document CHEMBL1145395, “De novo design of selective antibiotic peptides by incorporation of unnatural amino acids” (J Med Chem, 2007)
